Measured values published in patent US9617256B2 (priority 2007, dated 2017).
In brackets after ≈: the same amount, converted by molar mass.

Key:
AECO001 (ATCC25922) = test: MIC broth microdilution, AECO001; format: cell-based, E. coli; conditions: for MIC: Escherichia coli, ATCC25922, read-out: MIC AECO001
Outline: (§1)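 Inocula prepared from 0.5 McFarland suspensions (final 3×10^5–7×10^5 CFU/mL) were added to 2-fold drug dilution series in cation-adjusted Mueller-Hinton broth. Plates stood 18-24 hours at 35° C. under ambient air.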

AECO001 HSA AGP = test: MIC broth microdilution, AECO001 HSA AGP; format: cell-based, E. coli; conditions: for MIC: Escherichia coli
Outline: as §1

[1] = system: AECO063 (ATCC25922 bearing an acrAB mutation); test: microbe, parasite or virus in culture; format: cell-based, E. coli; conditions: for MIC: Escherichia coli, ATCC25922, read-out: MIC AECO063
Outline: as §1

[2] = system: ASAU001 (laboratory strain of S. aureus, ATCC29213); test: MIC broth microdilution, ASAU001; format: cell-based; conditions: for MIC: Staphylococcus aureus, ATCC29213, read-out: MIC ASAU001
Outline: as §1

[3] = system: APAE006 in the presence of 8 micrograms per milliliter of polymyxin B nonapeptide; format: cell-based, P. aeruginosa; conditions: in the presence of 8 micrograms per milliliter of polymyxin B nonapeptide
Outline: as §1

APAE001 (ATCC27853) = test: MIC broth microdilution, APAE001; format: cell-based, P. aeruginosa; conditions: for MIC: Pseudomonas aeruginosa, ATCC27853, read-out: MIC APAE001, APAE001 is ATCC27853
Outline: as §1

[4] = system: APAE006 (strain of P. aeruginosa in which all efflux pumps are inactivated); test: microbe, parasite or virus in culture; format: cell-based; conditions: for MIC: Pseudomonas aeruginosa, read-out: MIC APAE006, P. aeruginosa, all efflux pumps inactivated
Outline: as §1

[5] = system: AABA1060 (clinical isolate of Acinetobacter baumannii); test: MIC broth microdilution, AABA1060; format: cell-based; conditions: for MIC: Acinetobacter baumannii, read-out: MIC AABA1060
Outline: as §1

Row | Compound | MIC (AECO001 (ATCC25922)) [µg/mL] | MIC (AECO001 HSA AGP) [µg/mL] | MIC [1] [µg/mL] | MIC [2] [µg/mL] | MIC APAE006 + PMBN [3] | MIC (APAE001 (ATCC27853)) [µg/mL] | MIC [4] [µg/mL] | MIC [5] [µg/mL] | MIC AECO001 (AECO001 (ATCC25922); AECO001 is ATCC25922) | MIC AECO001 HSA AGP (AECO001 HSA AGP) | MIC AECO063 ([1]; ATCC25922 bearing an acrAB mutation) | MIC ASAU001 ([2]; S. aureus ATCC29213) | MIC APAE001 (APAE001 (ATCC27853); APAE001 is ATCC27853) | MIC APAE006 ([4]; P. aeruginosa, all efflux pumps inactivated) | MIC AABA1060 ([5]; clinical isolate of Acinetobacter baumannii)
1 | C[C@@H](NC(=O)CNC1CC1)[C@H](NC(=O)c1ccc(C#Cc2ccc(CO)cc2)cc1)C(=O)NO [Example 137-3] | < 2 | 2 to 16 (≈ 4.31 to 34.4 µM) | < 2 | 16 to 64 (≈ 34.4 to 138 µM) | A (MIC's of 2.0 μg/mL or less = A) | 2 to 16 (≈ 4.31 to 34.4 µM) | < 2 | 16 to 64 (≈ 34.4 to 138 µM) | – | – | – | – | – | – | –
2 | C[C@@H](N)[C@H](NC(=O)c1ccc(C#Cc2ccc(CCN)cc2)cc1)C(=O)NO [Example 137-4] | > 64 | > 64 | 16 to 64 (≈ 42.1 to 168 µM) | > 64 | C (MIC's of greater than 16.0 μg/mL to 64.0 μg/mL = C) | > 64 | 16 to 64 (≈ 42.1 to 168 µM) | > 64 | – | – | – | – | – | – | –
3 | CC(C)(N)C(NC(=O)c1ccc(C#Cc2ccc(CO)cc2)cc1)C(=O)NO (centres unmarked) [Example 137-5] | < 2 | 2 to 16 (≈ 5.24 to 41.9 µM) | < 2 | 16 to 64 (≈ 41.9 to 168 µM) | A (MIC's of 2.0 μg/mL or less = A) | < 2 | < 2 | 2 to 16 (≈ 5.24 to 41.9 µM) | – | – | – | – | – | – | –
4 | CC(C)(N)C(NC(=O)c1ccc(C#Cc2ccc(CNC3CC3)cc2)cc1)C(=O)NO (centres unmarked) [Example 137-6] | < 2 | 2 to 16 (≈ 4.76 to 38 µM) | < 2 | 16 to 64 (≈ 38 to 152 µM) | A (MIC's of 2.0 μg/mL or less = A) | < 2 | < 2 | 2 to 16 (≈ 4.76 to 38 µM) | – | – | – | – | – | – | –
5 | CC(C)(N)C(NC(=O)c1ccc(C#Cc2ccc(CNCC(F)F)cc2)cc1)C(=O)NO (centres unmarked) [Example 137-7] | < 2 | 2 to 16 (≈ 4.5 to 36 µM) | < 2 | 16 to 64 (≈ 36 to 144 µM) | A (MIC's of 2.0 μg/mL or less = A) | < 2 | < 2 | 2 to 16 (≈ 4.5 to 36 µM) | – | – | – | – | – | – | –
6 | C[C@@H](O)[C@H](NC(=O)c1ccc(CCc2ccc(CN3CCOCC3)cc2)cc1)C(=O)NO [Example 137-8] | 2 to 16 (≈ 4.53 to 36.2 µM) | 16 to 64 (≈ 36.2 to 145 µM) | < 2 | 16 to 64 (≈ 36.2 to 145 µM) | A (MIC's of 2.0 μg/mL or less = A) | 2 to 16 (≈ 4.53 to 36.2 µM) | < 2 | 16 to 64 (≈ 36.2 to 145 µM) | – | – | – | – | – | – | –
7 | N-[1-((S)-Hydroxycarbamoyl)-2-methylamino-ethyl]-4-[(E)-4-(4-morpholin-4-ylmethyl-phenyl)-but-1-en-3-ynyl]-benzamide [Example 111-4] | – | – | – | – | A (MIC's of 2.0 μg/mL or less = A) | – | – | – | A (MIC's of 2.0 μg/mL or less = A) | C (MIC's of greater than 16.0 μg/mL to 64.0 μg/mL = C) | A (MIC's of 2.0 μg/mL or less = A) | D (MIC's of greater than 64.0 μg/mL = D) | B (MIC's of greater than 2.0 μg/mL to 16.0 μg/mL = B) | A (MIC's of 2.0 μg/mL or less = A) | C (MIC's of greater than 16.0 μg/mL to 64.0 μg/mL = C)
